Laboratory results from a compilation of properties of binary mixtures (doi:10.1016/j.molliq.2021.115610).

Experiment: xn = mol fraction of the nth substance listed
Conditions: 298 K, 101 kPa

**Q.** What does the source list for `CC[NH3+].O=[N+]([O-])[O-]` + O?
**A.** viscosity (x2 = 0): 37.5 mPa·s; viscosity (x2 = 0.1): 27.33 mPa·s; viscosity (x2 = 0.198): 19.84 mPa·s; viscosity (x2 = 0.294): 14.51 mPa·s; viscosity (x2 = 0.394): 10.37 mPa·s; viscosity (x2 = 0.5): 7.16 mPa·s; viscosity (x2 = 0.6): 4.98 mPa·s; viscosity (x2 = 0.799): 2.27 mPa·s; viscosity (x2 = 0.9): 1.47 mPa·s

**Q.** Which viscosity (x1 = 1) does the source give for `O` + CC[NH3+].O=[N+]([O-])[O-] here?
**A.** 0.89 mPa·s

**Q.** Which viscosity (x2 = 0.112) does the source give for `CCCC[NH3+].O=[N+]([O-])[O-]` + O here?
**A.** 69.8 mPa·s

**Q.** What about the viscosity (x2 = 0.2) of the same compound?
**A.** 49.5 mPa·s

**Q.** And the viscosity (x2 = 0.397)?
**A.** 23.17 mPa·s

**Q.** What about the viscosity (x2 = 0.494) of the same compound?
**A.** 15.53 mPa·s

**Q.** And the viscosity (x2 = 0.596)?
**A.** 10.22 mPa·s

**Q.** What about the viscosity (x2 = 0.698) of the same compound?
**A.** 6.54 mPa·s

**Q.** What about the viscosity (x2 = 0.95) of the same compound?
**A.** 1.53 mPa·s
